Data as given in paper PMC5864910, “Mutacin 1140 Lantibiotic Variants Are Efficacious Against Clostridium difficile Infection” (Frontiers in Microbiology, 2018).
Converted amounts (≈) assume the structure as drawn. Read-outs that look alike come from different tables or passages of the source. No end group written: not given here.

Experiments:
BZD (central) [1] = assay: Safety Screen 44: BZD (central); format: binding, human
[2] = test system: NMDA ion channel receptor; assay: Safety Screen 44: NMDA; format: binding, human
Mycobacterium phlei [3] = test system: Mycobacterium phlei
Kv Channel [4] = assay: Safety Screen 44: Kv Channel; format: binding, human
Ca2+ Channel [5] = assay: Safety Screen 44: Ca2+ Channel; format: binding, human
Nav Channel [6] = assay: Safety Screen 44: Nav Channel; format: binding, human
[7] = test system: HepG2 human hepatocellular carcinoma cells
Description: The HepG2 cytotoxicity evaluation was performed by MB Research Labs (Spinnerstown, PA, United States) by the Neutral Red Uptake Bioassay of HepG2 human hepatocellular carcinoma cells in culture (ATCC #HB-8065). Briefly, HepG2 cells were seeded in the central 60 wells of 96-well plates and maintained in culture for approximately 24 h. Following pre-incubation, the culture medium was replaced with culture medium containing increasing concentrations of the test articles or control in the vehicle. Test articles were tested in triplicate wells, and reported as the mean. The cells were incubated for 24 h and cell viability was determined by Neutral Red (NR) uptake. For this assay, the medium was then replaced with NR medium (50 μg/mL NR in Hanks’ Balance Salt Solution, HBSS) and the cells were incubated for an additional 3 h. Following uptake of NR, the medium was discarded, the wells were washed with HBSS, and lysing solution (50:49:1 ethanol:water:acetic acid) was added subsequently to each well. The plates were placed on a rocker for 30 min until NR had been extracted from the cells and formed a homogeneous solution. The absorbance of each well was measured at 540 nm on a μQuant^TM plate reader (Bio-Tek Instruments) using KCjunior^TM software. The mean of the outer wells (DMEM2-FBS) was used as a reference control. The mean percent viability was determined for each concentration compared to the vehicle-treated control.

Ca2+ Channel [8] = assay: Safety Screen 44: Ca2+ Channel; format: binding, human; remark: listed apart in the source
Kv Channel [9] = assay: Safety Screen 44: Kv Channel; format: binding, human; remark: listed apart in the source
BZD (central) [10] = assay: Safety Screen 44: BZD (central); format: binding, human; remark: listed apart in the source
Nav Channel [11] = assay: Safety Screen 44: Nav Channel; format: binding, human; remark: listed apart in the source
Pseudomonas aeruginosa = assay: MIC broth dilution, P. aeruginosa; format: cell-based
Streptococcus pneumonia = assay: microbe, parasite or virus in culture; details: Streptococcus pneumoniae, read-out: MIC to S. pneumoniae
C. difficile UNT103-1 = assay: Cannulated Syrian hamster efficacy/relapse model of C. difficile infection (cHCDAD); format: in vivo, Golden Syrian hamsters; details: vancomycin 20 mg/Kg QD × 5 days, ileal canula, n = 6
Clostridium difficile = details: n = 3 strains; unit from method b19
Mycobacterium phlei [12] = assay: microbe, parasite or virus in culture; details: Mycolicibacterium phlei
Staphylococcus aureus = details: n = 5 strains; unit from method b19
C. difficile = test system: C. difficile; design: method as in McBride and Sonenshein, 2011; details: ref McBride and Sonenshein, 2011, cited from earlier work

## C=C1NC(=O)[C@H](Cc2c[nH]c3ccccc23)NC(=O)[C@H](NC(=O)[C@H](CCCCN)NC(=O)[C@@H](N)Cc2ccccc2)CSC[C@@H](C(=O)N[C@H]2C(=O)N3CCC[C@H]3C(=O)NCC(=O)N[C@H](C(=O)N[C@@H](C)C(=O)N[C@@H](CCCNC(=N)N)C(=O)N/C(=C\C)C(=O)NCC(=O)N[C@@H]3CSC[C@@H]4NC(=O)[C@H](Cc5ccc(O)cc5)NC(=O)[C@@H](CS/C=C\NC4=O)NC(=O)[C@H](CC(N)=O)NC(=O)[C@H](Cc4ccc(O)cc4)NC3=O)CS[C@H]2C)NC(=O)[C@H](CC(C)C)NC1=O [F17Y]
BZD (central) [1]
  Cerep SafetyScreen 44 % Inhibition BZD (central): -10%
[2]; […]
  Cerep SafetyScreen 44 % Inhibition NMDA: 12%
Mycobacterium phlei [3]
  Minimum Inhibitory Concentration Mycobacterium phlei: 2 µg/mL
Kv Channel [4]
  Cerep SafetyScreen 44 % Inhibition Kv Channel: 2%
Ca2+ Channel [5]
  Cerep SafetyScreen 44 % Inhibition Ca2+ Channel: -7%
Nav Channel [6]
  Cerep SafetyScreen 44 % Inhibition Nav Channel: 2%
[7]; HepG2 cytotoxicity
  HepG2 EC50: 514 µg/mL

## C=C1NC(=O)[C@H](Cc2c[nH]c3ccccc23)NC(=O)[C@H](NC(=O)[C@H](CCCCN)NC(=O)[C@@H](N)Cc2ccccc2)CSC[C@@H](C(=O)N[C@H]2C(=O)N3CCC[C@H]3C(=O)NCC(=O)N[C@H](C(=O)N[C@@H](C)C(=O)N[C@@H](CCCNC(=N)N)C(=O)N/C(=C\C)C(=O)NCC(=O)N[C@@H]3CSC[C@@H]4NC(=O)[C@H](Cc5ccc(O)cc5)NC(=O)[C@@H](CS/C=C\NC4=O)NC(=O)[C@H](CC(N)=O)NC(=O)[C@H](Cc4ccccc4)NC3=O)CS[C@H]2C)NC(=O)[C@H](C)NC1=O [L6A]
Ca2+ Channel [8]
  Cerep SafetyScreen 44 % Inhibition Ca2+ Channel: 3%
[2]
  Cerep SafetyScreen 44 % Inhibition NMDA: 15%
Kv Channel [9]
  Cerep SafetyScreen 44 % Inhibition Kv Channel: 8%
Mycobacterium phlei [3]
  Minimum Inhibitory Concentration Mycobacterium phlei: 4 µg/mL
BZD (central) [10]
  Cerep SafetyScreen 44 % Inhibition BZD (central): -6%
Nav Channel [11]
  Cerep SafetyScreen 44 % Inhibition Nav Channel: 8%
[7]; HepG2 cytotoxicity
  HepG2 EC50: 466 µg/mL

## C=C1NC(=O)[C@H](Cc2c[nH]c3ccccc23)NC(=O)[C@H](NC(=O)[C@H](CCCCN)NC(=O)[C@@H](N)Cc2ccccc2)CSC[C@@H](C(=O)N[C@H]2C(=O)N3CCC[C@H]3C(=O)NCC(=O)N[C@H](C(=O)N[C@@H](C)C(=O)N[C@@H](CCCNC(=N)N)C(=O)N/C(=C\C)C(=O)NCC(=O)N[C@@H]3CSC[C@@H]4NC(=O)[C@H](Cc5ccc(O)cc5)NC(=O)[C@@H](CS/C=C\NC4=O)NC(=O)[C@H](CC(N)=O)NC(=O)[C@H](Cc4ccccc4)NC3=O)CS[C@H]2C)NC(=O)[C@H]([C@@H](C)O)NC1=O [L6T]
Mycobacterium phlei [3]
  Minimum Inhibitory Concentration Mycobacterium phlei: 4 µg/mL
[7]; 24 h
  HepG2 EC50: 541 µg/mL

## CC1COc2c(N3CCN(C)CC3)c(F)cc3c(=O)c(C(=O)O)cn1c23 (stereo not drawn) [Ofloxacin]
Pseudomonas aeruginosa
  MIC: 1000 µg/mL (≈ 2770 µM)

## C=C1NC(=O)[C@H](Cc2c[nH]c3ccccc23)NC(=O)[C@H](NC(=O)[C@H](CCCCN)NC(=O)[C@@H](N)Cc2ccccc2)CSC[C@@H](C(=O)N[C@H]2C(=O)N[C@@H](Cc3c[nH]cn3)C(=O)NCC(=O)N[C@H](C(=O)N[C@@H](C)C(=O)N[C@@H](CCCNC(=N)N)C(=O)N/C(=C\C)C(=O)NCC(=O)N[C@@H]3CSC[C@@H]4NC(=O)[C@H](Cc5ccc(O)cc5)NC(=O)[C@@H](CS/C=C\NC4=O)NC(=O)[C@H](CC(N)=O)NC(=O)[C@H](Cc4ccccc4)NC3=O)CS[C@H]2C)NC(=O)[C@H](CC(C)C)NC1=O [P9H]
Mycobacterium phlei [3]
  Minimum Inhibitory Concentration Mycobacterium phlei: 4 µg/mL
[7]; 24 h
  HepG2 EC50: 218 µg/mL

## C=C1NC(=O)[C@H](Cc2c[nH]c3ccccc23)NC(=O)[C@H](NC(=O)[C@H](CCCCN)NC(=O)[C@@H](N)Cc2ccccc2)CSC[C@@H](C(=O)N[C@H]2C(=O)N3CCC[C@H]3C(=O)NCC(=O)N[C@H](C(=O)N[C@@H](C)C(=O)N[C@@H](C)C(=O)N/C(=C\C)C(=O)NCC(=O)N[C@@H]3CSC[C@@H]4NC(=O)[C@H](Cc5ccc(O)cc5)NC(=O)[C@@H](CS/C=C\NC4=O)NC(=O)[C@H](CC(N)=O)NC(=O)[C@H](Cc4ccccc4)NC3=O)CS[C@H]2C)NC(=O)[C@H](CC(C)C)NC1=O [R13A]
Mycobacterium phlei [3]
  Minimum Inhibitory Concentration Mycobacterium phlei: 8 µg/mL

## C=C1NC(=O)[C@H](Cc2c[nH]c3ccccc23)NC(=O)[C@H](NC(=O)[C@H](CCCCN)NC(=O)[C@@H](N)Cc2ccccc2)CSC[C@@H](C(=O)N[C@H]2C(=O)N3CCC[C@H]3C(=O)NCC(=O)N[C@H](C(=O)N[C@@H](C)C(=O)N[C@@H](CC(C)C)C(=O)N/C(=C\C)C(=O)NCC(=O)N[C@@H]3CSC[C@@H]4NC(=O)[C@H](Cc5ccc(O)cc5)NC(=O)[C@@H](CS/C=C\NC4=O)NC(=O)[C@H](CC(N)=O)NC(=O)[C@H](Cc4ccccc4)NC3=O)CS[C@H]2C)NC(=O)[C@H](CC(C)C)NC1=O [R13L]
Mycobacterium phlei [3]
  Minimum Inhibitory Concentration Mycobacterium phlei: 8 µg/mL

## C=C1NC(=O)[C@H](C)NC(=O)[C@H](NC(=O)[C@H](CCCCN)NC(=O)[C@@H](N)Cc2ccccc2)CSC[C@@H](C(=O)N[C@H]2C(=O)N3CCC[C@H]3C(=O)NCC(=O)N[C@H](C(=O)N[C@@H](C)C(=O)N[C@@H](CCCNC(=N)N)C(=O)N/C(=C\C)C(=O)NCC(=O)N[C@@H]3CSC[C@@H]4NC(=O)[C@H](Cc5ccc(O)cc5)NC(=O)[C@@H](CS/C=C\NC4=O)NC(=O)[C@H](CC(N)=O)NC(=O)[C@H](Cc4ccccc4)NC3=O)CS[C@H]2C)NC(=O)[C@H](CC(C)C)NC1=O [W4A]
Mycobacterium phlei [3]
  Minimum Inhibitory Concentration Mycobacterium phlei: 2 µg/mL
[7]; 24 h
  HepG2 EC50: > 1001

## C=C1NC(=O)[C@H](C(C)C)NC(=O)[C@H](NC(=O)[C@H](CCCCN)NC(=O)[C@@H](N)Cc2ccccc2)CSC[C@@H](C(=O)N[C@H]2C(=O)N3CCC[C@H]3C(=O)NCC(=O)N[C@H](C(=O)N[C@@H](C)C(=O)N[C@@H](CCCNC(=N)N)C(=O)N/C(=C\C)C(=O)NCC(=O)N[C@@H]3CSC[C@@H]4NC(=O)[C@H](Cc5ccc(O)cc5)NC(=O)[C@@H](CS/C=C\NC4=O)NC(=O)[C@H](CC(N)=O)NC(=O)[C@H](Cc4ccccc4)NC3=O)CS[C@H]2C)NC(=O)[C@H](CC(C)C)NC1=O [W4V]
Mycobacterium phlei [3]
  Minimum Inhibitory Concentration Mycobacterium phlei: 4 µg/mL
[7]; 24 h
  HepG2 EC50: > 1002

## CC1(C)S[C@@H]2[C@H](NC(=O)[C@H](N)c3ccccc3)C(=O)N2[C@H]1C(=O)O [ampicillin]
Streptococcus pneumonia
  MIC: 1 µg/mL (≈ 2.86 µM)

## CN[C@H](CC(C)C)C(=O)N[C@H]1C(=O)N[C@@H](CC(N)=O)C(=O)N[C@H]2C(=O)N[C@H]3C(=O)N[C@H](C(=O)N[C@H](C(=O)O)c4cc(O)cc(O)c4-c4cc3ccc4O)[C@H](O)c3ccc(c(Cl)c3)Oc3cc2cc(c3O[C@@H]2O[C@H](CO)[C@@H](O)[C@H](O)[C@H]2O[C@H]2C[C@](C)(N)[C@H](O)[C@H](C)O2)Oc2ccc(cc2Cl)[C@H]1O [vancomycin]
C. difficile UNT103-1
  survival at day 21: 33%
Clostridium difficile
  MIC against C. difficile (range): 0.5 to 4 µg/mL
Mycobacterium phlei [12]; read-out: MIC, M. phlei
  MIC: 0.25 µg/mL (≈ 0.173 µM)
Mycobacterium phlei [12]; read-out: Minimum Inhibitory Concentration Mycobacterium phlei
  MIC: 250 µg/mL (≈ 173 µM)
Staphylococcus aureus
  MIC against S. aureus (range): 0.125 to 2 µg/mL

## gallidermin (IASKFLCTPGCAKTGSFNSYCC; thioether (positions not given here); also: lanthionine/methyllanthionine bridges, places not given here; UniProt P21838 31-52, looked up) [lantibiotic cited from literature]
C. difficile; cpr resistance
  MIC increase of C. difficile: 2–4 fold
C. difficile; level after MIC increase (cpr)
  MIC of C. difficile: ~1 µg/mL
